Our source for the Ki values is patent US8367695B2, “Condensed tetrahydroquinoline derivative and use thereof for medical purposes” (Mitsubishi Tanabe Pharma Corporation, priority 2007, dated 2013).

The Ki is the equilibrium dissociation constant of an inhibitor or competing ligand from its target.

One assay deals with T1, human recombinant glucocorticoids receptor (GR) (Homo sapiens, UniProt P04150).
T1 sequence (P04150 1-777): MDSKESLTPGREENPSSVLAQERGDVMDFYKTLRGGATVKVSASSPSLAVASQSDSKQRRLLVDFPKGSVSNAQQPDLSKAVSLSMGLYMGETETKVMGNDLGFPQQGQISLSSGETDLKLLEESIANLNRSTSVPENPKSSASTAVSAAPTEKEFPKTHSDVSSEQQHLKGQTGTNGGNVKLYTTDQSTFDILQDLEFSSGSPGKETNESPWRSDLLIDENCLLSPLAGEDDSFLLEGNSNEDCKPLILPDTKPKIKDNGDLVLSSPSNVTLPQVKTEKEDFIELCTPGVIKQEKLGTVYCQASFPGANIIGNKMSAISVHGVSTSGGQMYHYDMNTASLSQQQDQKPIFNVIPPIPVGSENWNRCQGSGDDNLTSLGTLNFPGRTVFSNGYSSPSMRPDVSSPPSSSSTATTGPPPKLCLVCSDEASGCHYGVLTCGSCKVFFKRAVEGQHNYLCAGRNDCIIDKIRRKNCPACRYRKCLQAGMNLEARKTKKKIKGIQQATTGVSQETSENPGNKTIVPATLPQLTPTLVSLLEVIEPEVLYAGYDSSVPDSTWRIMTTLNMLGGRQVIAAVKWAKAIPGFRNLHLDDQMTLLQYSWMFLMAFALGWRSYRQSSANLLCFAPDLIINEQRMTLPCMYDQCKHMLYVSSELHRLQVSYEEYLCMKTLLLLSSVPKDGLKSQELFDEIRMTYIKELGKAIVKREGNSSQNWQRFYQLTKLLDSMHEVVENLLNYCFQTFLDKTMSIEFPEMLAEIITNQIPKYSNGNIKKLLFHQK
In words: Radioactive ligand binding test, GR cytosol, [3H]-Dex.
Conditions: not given
On the procedure: Radioactive Ligand Binding Test Using Cytosols of Human Glucocorticoids Receptor, Progesterone Receptor and Mineralocorticoid Receptor
Opthalmol. Vis. […] In brief, cytosol preparations of human recombinant glucocorticoids receptor (GR) and human recombinant progesterone receptor-B (PRB) were purchased from Invitrogen (Carlsbad, Calif.), and a cytosol preparation of human recombinant mineralocorticoid receptor (MR) was prepared by our company (Yokohama, JP). MR cDNA was cloned into a baculovirus expression vector and expressed in insect cell Sf9. […] [^3H]-Dexamethasone (Dex, specific activity 91.0 Ci/mmol) was purchased from GE Healthcare (Buckinghamshire, UK), and [^3H]-progesterone (Prog, specific activity 103 Ci/mmol) and [3H]-aldosterone (Ald, specific activity 87.9 Ci/mmol) were each purchased from PerkinElmer (Boston, Mass.). Polypropylene round-bottomed 96 well plate was obtained from ABgene (Epsom, UK). Dimethyl Sulfoxide (DMSO) and hydrochloric acid were obtained from Kanto Chemical (TOKYO, JP). Trizma Base (Tris), Bovine Serum Albumin (BSA) and Sodium tungstate dihydrate were obtained from Sigma Chemicals (St. Louis, Mo.). Dithiothreitol (DTT) and Dextran 70 were obtained from GE Healthcare (Buckinghamshire, UK). Glycerol was obtained from Junsei Chemical (TOKYO, JP). Norit® “SX-II” was obtained from Wako Pure Chemical Industries, Ltd. (Osaka, JP). MeltiLex™, A, Printed Filtermat A and Sample Bag were obtained from PerkinElmer (Boston, Mass.).
As a buffer for GR binding assay, 25 mM Tris-HCl (4° C., pH 7.4)/1 mM EDTA·2Na/1 mM DTT/0.1% BSA was prepared and used. As buffers for PRB and MR binding assay, 10 mM Tris-HCl (4° C., pH 7.4)/1 mM DTT/0.1% BSA/10% glycerol and 20 mM Tris-HCl (4° C., pH 7.4)/1 mM EDTA·2Na/10% glycerol/20 mM sodium tungstate were respectively prepared and used.
Compound storage solutions (5-20 mM) were prepared using DMSO. The storage solutions were diluted with DMSO to 0.1 mM (for GR) and 0.3 mM (for PRB and MR), and further diluted 20-fold with distilled water to give solutions. Then, the preparations were diluted to each concentration with 5% DMSO solution. 1% DMSO was present at the time of the binding assay.
GR, PRB and MR binding reactions were performed in 96 well plate (ABgene). In the case of GR binding assay, [^3H]-Dex (about 5 nM), GR cytosol (concentration of function receptor: about 4 pmol/mL), a test compound and a binding buffer were mixed in a total volume of 50 μL, and the mixture was stood at 4° C. for 30 min or longer. A specific binding was defined to be the difference in the [^3H]-Dex binding between the presence and the absence of 1 μM unlabeled Dex.
After the reaction, 50 μL of DCC was added to each well and blended. Thereafter, the mixture was stood at 4° C. for 10 min. The plate was applied to high-speed cooling centrifuge under the conditions of 4° C., 2000 rpm, 5 min to perform B/F separation. A given amount of the supernatant was recovered, which was spotted on Filtermat A of 96 well format (PerkinElmer) and rapidly dried at a high temperature.
Measurement of Inhibition Constant (Ki)
Ki of the test compound was determined by the following Cheng-Prusoff equation: Ki=IC50/(1+[L*]/Kd) • wherein L* is a concentration of radioactive ligand and Kd is a dissociation constant for radioactive ligand determined by saturation analysis.
For the compound `C=CCC1(C)C(=O)C(C)(C)Nc2c1cc(-c1cccc3cc[nH]c13)c1c2OCO1` (centres unmarked) [Example 78, 6-allyl-4-(1H-indol-7-yl)-6,8,8-trimethyl-6,7,8,9-tetrahydro-[1,3]dioxolo[4,5-h]quinolin-7-one], the Ki was determined as 80 nM.

The assay is the same for the next values; noted with them: [3H]-Dex about 5 nM, GR cytosol, 4° C.; Cheng-Prusoff, Kd about 3.1 nM; read-out: GR (Ki: nM).
On to `Cc1noc(C)c1-c1cc2c(c3c1OCC3)NC(C)(C)C(=O)C2(C)C` [Example 84, 6-(3,5-dimethylisoxazol-4-yl)-2,2,4,4-tetramethyl-1,2,3,4,8,9-hexahydro-furo[2,3-h]quinolin-3-one], for which the Ki was 27 nM.
On the same count and under the same terms, as for `Cc1noc(C)c1-c1cc2c(c3c1OCO3)NC(C)(C)C(=O)C2(C)C` [Example 69, 4-(3,5-dimethylisoxazol-4-yl)-6,6,8,8-tetramethyl-6,7,8,9-tetrahydro-[1,3]dioxolo[4,5-h]quinolin-7-one], the figure is 55 nM.
`Cc1noc(C)c1-c1cc2c(c3c1C(=O)CC3)NC(C)(C)C(=O)C2(C)C` [Example 104, 6-(3,5-dimethylisoxazol-4-yl)-2,2,4,4-tetramethyl-2,3,4,7,8,9-hexahydro-1H-cyclopenta[h]quinoline-3,7-dione]: the Ki was determined as 60 nM.
The same measure, in the same setting: the result for `CC1(C)Nc2c(cc(-c3ccnc4ncccc34)c3c2CCO3)C(C)(C)C1=O` [Example 92, 2,2,4,4-tetramethyl-6-([1,8]naphthyridin-4-yl)-1,2,3,4,8,9-hexahydro-furo[2,3-h]quinolin-3-one] reads 64 nM; that for `CC1(C)Nc2c(cc(-c3cccc4ncccc34)c3occc23)C(C)(C)C1=O` [Example 101, 2,2,4,4-tetramethyl-6-(quinolin-5-yl)-1,2,3,4-tetrahydro-furo [2,3-h]quinolin-3-one], 35 nM.
Same read-out and setting: the result for `CC1(C)Nc2c(cc(-c3ccnc4ncccc34)c3occc23)C(C)(C)C1=O` [Example 102, 2,2,4,4-tetramethyl-6-([1,8]naphthyridin-4-yl)-1,2,3,4-tetrahydro-furo[2,3-h]quinolin-3-one] reads 66 nM; that for `CC1(C)Nc2c(cc(-c3cccc4nccn34)c3c2OC(F)(F)O3)C(C)(C)C1=O` [Example 82, 2,2-difluoro-4-(imidazo[1,2-a]pyridin-5-yl)-6,6,8,8-tetramethyl-6,7,8,9-tetrahydro-[1,3]dioxolo[4,5-h]quinolin-7-one], 47 nM; that for `CCC1(C)C(=O)C(C)(C)Nc2c1cc(-c1cccc3nccn13)c1c2CCC1` (centres unmarked) [Example 58, 4-ethyl-6-(imidazo[1,2-s]pyridin-5-yl)-2,2,4-trimethyl-2,3,4,7,8,9-hexahydro-1H-cyclopenta[h]quinolin-3-one], 12 nM.
Turning to `CC1(C)Nc2c(cc(-c3ccnc4ncccc34)c3c2CCC3)C(C)(C)C1=O` [Example 21, 2,2,4,4-tetramethyl-6-([1,8]naphthyridin-4-yl)-2,3,4,7,8,9-hexahydro-1H-cyclopenta[h]quinolin-3-one], the Ki amounted to 35 nM.
On the same count and under the same terms, as for `Cc1onc(CO)c1-c1cc2c(c3ccoc13)NC(C)(C)C(=O)C2(C)C` [Example 94, 6-(3-hydroxymethyl-5-methylisoxazol-4-yl)-2,2,4,4-tetramethyl-1,2,3,4-tetrahydro-furo[2,3-h]quinolin-3-one], the figure is 11 nM; as for `Cc1nnn(C)c1-c1cc2c(c3c1CCC3)NC(C)(C)C(=O)C2(C)C` [Example 4, 6-(3,5-dimethyl-3H-[1,2,3]triazol-4-yl)-2,2,4,4-tetramethyl-2,3,4,7,8,9-hexahydro-1H-cyclopenta[h]quinolin-3-one], 53 nM.
In the case of `CC1(C)Nc2c(cc(-c3cccc4nccn34)c3c2OCO3)C(C)(C)C1=O` [Example 71, 4-(imidazo[1,2-a]pyridin-5-yl)-6,6,8,8-tetramethyl-6,7,8,9-tetrahydro-[1,3]dioxolo[4,5-h]quinolin-7-one], the Ki worked out at 59 nM.
On the same count and under the same terms, the result for `CC1(C)Nc2c(cc(-c3cccc4ncccc34)c3c2CCC3)C(C)(C)C1=O` [Example 20, 2,2,4,4-tetramethyl-6-(quinolin-5-yl)-2,3,4,7,8,9-hexahydro-1H-cyclopenta[h]quinolin-3-one] reads 70 nM.
Turning to `CC1(C)Nc2c(cc(-c3cccc4nccn34)c3c2CCC3)C(C)(C)C1=O` [Example 14, 6-(imidazo[1,2-a]pyridin-5-yl)-2,2,4,4-tetramethyl-2,3,4,7,8,9-hexahydro-1H-cyclopenta[h]quinolin-3-one], the inhibition constant Ki came out at 11 nM.
Still for that read-out and setting: as for `C=CCC1(C)C(=O)C(C)(C)Nc2c1cc(-c1ccc(O)cc1C)c1c2CCC1` (centres unmarked) [Example 50, 4-allyl-6-(4-hydroxy-2-methylphenyl)-2,2,4-trimethyl-2,3,4,7,8,9-hexahydro-1H-cyclopenta[h]quinolin-3-one], the figure is 97 nM; as for `CC1(C)Nc2c(cc(-c3cncc4nccn34)c3occc23)C(C)(C)C1=O` [Example 100, 6-(imidazo[1,2-a]pyrazin-5-yl)-2,2,4,4-tetramethyl-1,2,3,4-tetrahydro-furo[2,3-h]quinolin-3-one], 85 nM.
The same measure, in the same setting: as for `CC1(C)Nc2c(cc(-c3cccc4nncn34)c3c2CCC3)C(C)(C)C1=O` [Example 17, 2,2,4,4-tetramethyl-6-([1,2,4]triazolo[4,3-a]pyridin-5-yl)-2,3,4,7,8,9-hexahydro-1H-cyclopenta[h]quinolin-3-one], the figure is 53 nM; as for `Cc1noc(C)c1-c1cc2c(c3c1CCC3)NC(C)(C)C(=O)C2(C)C` [Example 2, 6-(3,5-dimethylisoxazol-4-yl)-2,2,4,4-tetramethyl-2,3,4,7,8,9-hexahydro-1H-cyclopenta[h]quinolin-3-one], 15 nM; as for `CC1(C)Nc2c(cc(-c3cccc4nccn34)c3occc23)C(C)(C)C1=O` [Example 98, 6-(imidazo[1,2-a]pyridin-5-yl)-2,2,4,4-tetramethyl-1,2,3,4-tetrahydro-furo[2,3-h]quinolin-3-one], 15 nM.
The same measure, in the same setting: the result for `C=C1C(C)(C)Nc2c(cc(-c3c(C)ncn3C)c3c2CCC3)C1(C)C` [Example 29, 6-(3,5-dimethyl-3H-imidazol-4-yl)-2,2,4,4-tetramethyl-3-methylene-2,3,4,7,8,9-hexahydro-1H-cyclopenta[h]quinoline] reads 58 nM; that for `CC#CCC1(C)C(=O)C(C)(C)Nc2c1cc(-c1cccc3nccn13)c1c2CCC1` (centres unmarked) [Example 63, 4-(2-butynyl)-6-(imidazo[1,2-a]pyridin-5-yl)-2,2,4-trimethyl-2,3,4,7,8,9-hexahydro-1H-cyclopenta[h]quinolin-3-one], 27 nM.
`CC1(C)Nc2c(cc(-c3cccc4ncccc34)c3c2OCO3)C(C)(C)C1=O` [Example 72, 6,6,8,8-tetramethyl-4-(quinolin-5-yl)-6,7,8,9-tetrahydro-[1,3]dioxolo[4,5-h]quinolin-7-one]: the Ki was found to be 96 nM.
